Laboratory results reported in US20150087673A1, “METHODS FOR USING AND BIOMARKERS FOR AMPK-ACTIVATING COMPOUNDS” (RIGEL PHARMACEUTICALS, INC., priority 2013, published 2015).

The compounds below were run on AMPK (assay: AMPK activation assay (enzyme-linked immunosorbent assay)).
Format: cell-based
Method in brief: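 Compounds were tested for their capacity to activate the kinase using standard, commercially available kit reagents and procedures.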
`CS(=O)(=O)c1ccc(OC2CCN(C(=O)c3ccc(C(=O)NC4CCN(Cc5ccc(C#N)cc5)CC4)nn3)CC2)cc1` [Compound 399, N-(1-(4-cyanobenzyl)piperidin-4-yl)-6-(4-(4-(methylsulfonyl)phenoxy)piperidine-1-carbonyl)pyridazine-3-carboxamide] showed an EC50 of less than 0.5 µM. Work on `COc1ccc(C(=O)C2CCN(C(=O)c3ccc(C(=O)NC4CCN(Cc5ccc(N)cc5)CC4)cn3)CC2)cc1` [Compound 400, N-(1-(4-aminobenzyl)piperidin-4-yl)-6-(4-(4-methoxybenzoyl)piperidine-1-carbonyl)nicotinamide] yielded an EC50 of 1 to 5 µM. `COc1ccc(C(=O)C2CCN(C(=O)c3ccc(C(=O)NC4CCN(Cc5ccc(NC(C)=O)cc5)CC4)cn3)CC2)cc1` [Compound 401, N-(1-(4-acetamidobenzyl)piperidin-4-yl)-6-(4-(4-methoxybenzoyl)piperidine-1-carbonyl)nicotinamide] gave an EC50 of 1 to 5 µM. `CC(=O)c1ccc(OC2CCN(C(=O)c3ccc(C(=O)NC4CCC(Oc5ccc(C#N)cc5)CC4)cn3)CC2)cc1` (centres unmarked) [Compound 402, 6-(4-(4-acetylphenoxy)piperidine-1-carbonyl)-N-(4-(4-cyanophenoxy)cyclohexyl)nicotinamide] was tested, and the EC50 was less than 0.5 µM. `COc1ccc(C(=O)C2CCN(C(=O)c3ccc(C(=O)NC4CCN(Cc5ccc(NC(=O)CCOCCOCCOCCNC(=O)CCCC[C@@H]6SC[C@@H]7NC(=O)N[C@@H]76)cc5)CC4)nc3)CC2)cc1` [Compound 403, 5-(4-(4-methoxybenzoyl)piperidine-1-carbonyl)-N-(1-(4-(14-oxo-18-((3aS,4S,6aR)-2-oxohexahydro-1H-thieno[3,4-d]imidazol-4-yl)-4,7,10-trioxa-13-azaoctadecanamido)benzyl)piperidin-4-yl)picolinamide] gave an EC50 greater than 10 µM. `O=C(NC1CCN(c2ccc(F)cc2)CC1)c1ccc(C(=O)N2CCN(Cc3ccc(F)cc3)CC2)nc1` [Compound 404, 6-(4-(4-fluorobenzyl)piperazine-1-carbonyl)-N-(1-(4-fluorophenyl)piperidin-4-yl)nicotinamide] showed an EC50 of 1 to 5 µM. For `COc1ccc(N2CCC(NC(=O)c3ccc(C(=O)N4CCN(Cc5ccc(F)cc5)CC4)nc3)CC2)cc1` [Compound 405, 6-(4-(4-fluorobenzyl)piperazine-1-carbonyl)-N-(1-(4-methoxyphenyl)piperidin-4-yl) nicotinamide], the EC50 was less than 0.5 µM. With `CC(=O)Nc1ccc(OC2CCN(C(=O)c3ccc(C(=O)NC4CCN(Cc5ccc(F)cc5)CC4)cn3)CC2)cc1` [Compound 406, 6-(4-(4-acetamidophenoxy)piperidine-1-carbonyl)-N-(1-(4-fluorobenzyl)piperidin-4-yl)nicotinamide] the EC50 was 0.5 to 1 µM. In the case of `COc1ccc(CN2CCC(NC(=O)c3ccc(C(=O)N4CCC(Oc5ccc(NC(C)=O)cc5)CC4)nc3)CC2)cc1` [Compound 407, 6-(4-(4-acetamidophenoxy)piperidine-1-carbonyl)-N-(1-(4-methoxybenzyl)piperidin-4-yl) nicotinamide], the EC50 is reported as less than 0.5 µM. In the case of `CC(=O)Nc1ccc(OC2CCN(C(=O)c3ccc(C(=O)Nc4ccc(Oc5ccc(F)cc5)nc4)nc3)CC2)cc1` [Compound 408, 5-(4-(4-acetamidophenoxy)piperidine-1-carbonyl)-N-(6-(4-fluorophenoxy)pyridin-3-yl)picolinamide], the EC50 is reported as less than 0.5 µM. Compound `N#Cc1ccc(CN2CCC(NC(=O)c3ccc(C(=O)N4CCC(Oc5ccc(NC(=O)C6CC6)cc5)CC4)nc3)CC2)cc1` [Compound 409, N-(1-(4-cyanobenzyl)piperidin-4-yl)-6-(4-(4-(cyclopropanecarboxamido)phenoxy)piperidine-1-carbonyl)nicotinamide] has an EC50 of less than 0.5 µM. Work on `N#Cc1ccc(CN2CCC(NC(=O)c3ccc(C(=O)N4CCC(Oc5ccc(SC(F)(F)F)cc5)CC4)cn3)CC2)cc1` [Compound 410, N-(1-(4-cyanobenzyl)piperidin-4-yl)-5-(4-(4-(trifluoromethylthio)phenoxy)piperidine-1-carbonyl)picolinamide] yielded an EC50 of less than 0.5 µM. For `CC(=O)Nc1cccc(OC2CCN(C(=O)c3ccc(C(=O)NC4CCN(Cc5ccc(C#N)cc5)CC4)cn3)CC2)c1` [Compound 411, 6-(4-(3-acetamidophenoxy)piperidine-1-carbonyl)-N-(1-(4-cyanobenzyl)piperidin-4-yl)nicotinamide], the EC50 was 1 to 5 µM. `COc1ccc(CN2CCC(NC(=O)c3ccc(C(=O)N4CCC(Oc5cccc(NC(C)=O)c5)CC4)nc3)CC2)cc1` [Compound 412, 6-(4-(3-acetamidophenoxy)piperidine-1-carbonyl)-N-(1-(4-methoxybenzyl)piperidin-4-yl)nicotinamide] was tested, and the EC50 was 1 to 5 µM. Work on `CC(=O)Nc1cccc(OC2CCN(C(=O)c3ccc(C(=O)NC4CCN(Cc5ccc(F)cc5)CC4)cn3)CC2)c1` [Compound 413, 6-(4-(3-acetamidophenoxy)piperidine-1-carbonyl)-N-(1-(4-fluorobenzyl)piperidin-4-yl)nicotinamide] yielded an EC50 of 1 to 5 µM. With `CC(=O)Nc1cccc(OC2CCN(C(=O)c3ccc(C(=O)Nc4ccc(Oc5ccc(F)cc5)nc4)cn3)CC2)c1` [Compound 414, 6-(4-(3-acetamidophenoxy)piperidine-1-carbonyl)-N-(6-(4-fluorophenoxy)pyridin-3-yl)nicotinamide] the EC50 was 1 to 5 µM. With `N#Cc1ccc(CN2CCC(NC(=O)c3ccc(C(=O)N4CCC(Oc5ccc(S(=O)(=O)C(F)(F)F)cc5)CC4)cn3)CC2)cc1` [Compound 415, N-(1-(4-cyanobenzyl)piperidin-4-yl)-5-(4-(4-(trifluoromethylsulfonyl)phenoxy)piperidine-1-carbonyl)picolinamide] the EC50 was less than 0.5 µM. `COc1ccc(C(=O)C2CCN(C(=O)c3ncc(C(=O)NC4CCN(Cc5ccc(C#N)cc5)CC4)cc3CCCNC(=O)OC(C)(C)C)CC2)cc1` [Compound 416, tert-butyl 3-(5-(1-(4-cyanobenzyl)piperidin-4-ylcarbamoyl)-2-(4-(4-methoxybenzoyl)piperidine-1-carbonyl)pyridin-3-yl)propylcarbamate] was tested, and the EC50 was 1 to 5 µM. `N#Cc1ccc(N2CCC(NC(=O)c3ccc(C(=O)N4CCN(Cc5ccc(F)cc5)CC4)nc3)CC2)cc1` [Compound 417, N-(1-(4-cyanophenyl)piperidin-4-yl)-6-(4-(4-fluorobenzyl)piperazine-1-carbonyl)nicotinamide] showed an EC50 of less than 0.5 µM. Work on `N#Cc1ccc(OC2CCN(C(=O)c3ccc(C(=O)NC4CCN(c5ccc(C#N)cc5)CC4)cn3)CC2)cc1` [Compound 418, 6-(4-(4-cyanophenoxy)piperidine-1-carbonyl)-N-(1-(4-cyanophenyl)piperidin-4-yl)nicotinamide] yielded an EC50 of less than 0.5 µM. For `N#Cc1ccc(CN2CCC(NC(=O)c3ccc(C(=O)N4CCC(C(=O)c5cccs5)CC4)cn3)CC2)cc1` [Compound 419, N-(1-(4-cyanobenzyl)piperidin-4-yl)-5-(4-(thiophene-2-carbonyl)piperidine-1-carbonyl)picolinamide], the EC50 was less than 0.5 µM. For `CS(=O)(=O)c1ccc(N2CCC(NC(=O)c3ccc(C(=O)N4CCC(Oc5ccc(C#N)cc5)CC4)nc3)CC2)cc1` [Compound 420, 6-(4-(4-cyanophenoxy)piperidine-1-carbonyl)-N-(1-(4-(methylsulfonyl)phenyl)piperidin-4-yl)nicotinamide], the EC50 was 1 to 5 µM. With `CS(=O)(=O)c1ccc(N2CCC(NC(=O)c3ccc(C(=O)N4CCN(Cc5ccc(F)cc5)CC4)nc3)CC2)cc1` [Compound 421, 6-(4-(4-fluorobenzyl)piperazine-1-carbonyl)-N-(1-(4-(methylsulfonyl)phenyl)piperidin-4-yl)nicotinamide] the EC50 was 1 to 5 µM.
